Target: T1, F508del (Homo sapiens, UniProt P13569, DEL508-508)
T1 construct: expressed in transfected cells
Experiment: Protocol 1: membrane potential optical assay (FLIPR III, voltage sensing dye), identification of potentiator compounds
Format: cell-based
Details: Table 3, compounds of Table 1
In short: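 Membrane potential in forskolin-activated, temperature-rescued F508del NIH 3T3 cells is followed with a voltage-sensing dye on FLIPR III. A chloride ion gradient created at the single addition step provides the driving force, after prior compound treatment.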

T1 sequence (P13569 with tags, fused parts or gaps DEL508-508): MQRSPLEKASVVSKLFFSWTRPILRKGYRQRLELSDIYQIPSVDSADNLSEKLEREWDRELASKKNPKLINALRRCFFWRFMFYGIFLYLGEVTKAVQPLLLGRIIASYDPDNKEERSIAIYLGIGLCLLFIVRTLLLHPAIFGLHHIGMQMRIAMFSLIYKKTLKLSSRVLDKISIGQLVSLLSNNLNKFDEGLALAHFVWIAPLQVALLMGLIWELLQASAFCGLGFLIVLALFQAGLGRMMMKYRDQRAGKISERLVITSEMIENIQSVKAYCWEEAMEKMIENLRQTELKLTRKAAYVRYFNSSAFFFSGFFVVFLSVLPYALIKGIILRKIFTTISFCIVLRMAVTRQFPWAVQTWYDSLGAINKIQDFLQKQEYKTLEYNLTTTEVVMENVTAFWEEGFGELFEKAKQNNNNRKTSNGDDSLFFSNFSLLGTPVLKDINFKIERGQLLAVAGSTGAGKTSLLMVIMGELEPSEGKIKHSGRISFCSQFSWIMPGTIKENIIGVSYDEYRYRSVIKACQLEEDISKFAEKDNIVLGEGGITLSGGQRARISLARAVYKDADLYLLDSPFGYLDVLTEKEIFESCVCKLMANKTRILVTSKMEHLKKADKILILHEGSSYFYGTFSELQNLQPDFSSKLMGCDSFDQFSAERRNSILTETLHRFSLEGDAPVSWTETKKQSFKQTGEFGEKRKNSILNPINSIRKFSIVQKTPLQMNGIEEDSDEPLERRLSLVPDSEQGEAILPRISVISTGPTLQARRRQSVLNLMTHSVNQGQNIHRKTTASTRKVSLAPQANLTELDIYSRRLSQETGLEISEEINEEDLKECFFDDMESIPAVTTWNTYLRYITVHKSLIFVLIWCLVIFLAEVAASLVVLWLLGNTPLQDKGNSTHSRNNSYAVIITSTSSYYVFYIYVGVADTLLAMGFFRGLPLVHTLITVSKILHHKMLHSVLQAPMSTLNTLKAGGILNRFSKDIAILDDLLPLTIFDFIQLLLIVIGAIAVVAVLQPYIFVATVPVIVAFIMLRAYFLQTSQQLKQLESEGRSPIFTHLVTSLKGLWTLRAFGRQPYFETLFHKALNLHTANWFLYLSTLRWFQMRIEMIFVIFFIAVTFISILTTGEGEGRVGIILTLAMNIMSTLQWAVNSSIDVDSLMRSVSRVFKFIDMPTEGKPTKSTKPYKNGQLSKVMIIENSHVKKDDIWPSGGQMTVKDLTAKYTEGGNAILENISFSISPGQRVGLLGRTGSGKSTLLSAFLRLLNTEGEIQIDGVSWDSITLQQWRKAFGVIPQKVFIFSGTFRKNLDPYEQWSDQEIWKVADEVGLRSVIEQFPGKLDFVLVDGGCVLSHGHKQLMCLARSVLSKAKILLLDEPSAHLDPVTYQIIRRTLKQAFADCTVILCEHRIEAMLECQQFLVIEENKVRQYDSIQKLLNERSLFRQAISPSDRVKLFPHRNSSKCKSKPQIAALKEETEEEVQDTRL

SMILES	EC30
CC(C)COc1cc(F)cc(-c2ccc(C(=O)NS(=O)(=O)c3cccc(N)n3)c(OCC3CC3(C)C)n2)c1 (centres unmarked) [Compound 894, N-[(6-amino-2-pyridyl)sulfonyl]-2-[(2,2-dimethylcyclopropyl)methoxy]-6-(3-fluoro-5-isobutoxy-phenyl)pyridine-3-carboxamide]	+++ (“+++” means <3 uM)
Cc1cc(C)c(CN2Cc3ccccc3C2(C)C(=O)NS(=O)(=O)c2cccc(N)n2)c(C)c1 (centres unmarked) [Compound 895, N-[(6-amino-2-pyridyl)sulfonyl]-1-methyl-2-[(2,4,6-trimethylphenyl)methyl]isoindoline-1-carboxamide]	+++ (“+++” means <3 uM)
CC1CN(c2nc(-c3ccc(C(C)C)nc3)ccc2C(=O)NS(=O)(=O)c2cccc(N)n2)C(C)(C)C1 (centres unmarked) [Compound 896, N-[(6-amino-2-pyridyl)sulfonyl]-6-(6-isopropyl-3-pyridyl)-2-(2,2,4-trimethylpyrrolidin-1-yl)pyridine-3-carboxamide]	+++ (“+++” means <3 uM)
COc1cc(Cl)ccc1-c1ccc(C(=O)NS(=O)(=O)c2cccc(N)n2)c(Oc2c(C)cc(C)cc2C)n1 [Compound 897, N-[(6-amino-2-pyridyl)sulfonyl]-6-(4-chloro-2-methoxy-phenyl)-2-(2,4,6-trimethylphenoxy)pyridine-3-carboxamide]	+++ (“+++” means <3 uM)
CC(C)CN(C)c1cc(-c2ccc(C(=O)NS(=O)(=O)c3cccc(N)n3)c(N3CC(C)CC3(C)C)n2)ccn1 (centres unmarked) [Compound 898, N-[(6-amino-2-pyridyl)sulfonyl]-6-[2-[isobutyl(methyl)amino]-4-pyridyl]-2-(2,2,4-trimethylpyrrolidin-1-yl)pyridine-3-carboxamide]	+++ (“+++” means <3 uM)
Cc1cc(C)c(Oc2nc3c(cc2C(=O)NS(=O)(=O)c2ccc[nH]c2=O)CCCC3(C)C)c(C)c1 [Compound 899, 8,8-dimethyl-N-[(2-oxo-1H-pyridin-3-yl)sulfonyl]-2-(2,4,6-trimethylphenoxy)-6,7-dihydro-5H-quinoline-3-carboxamide]	+++ (“+++” means <3 uM)
CCc1ccc(-c2ccc(C(=O)NS(=O)(=O)c3cccc(N)n3)c(Oc3c(C)cc(C)cc3C)n2)cc1 [Compound 900, N-[(6-amino-2-pyridyl)sulfonyl]-6-(4-ethylphenyl)-2-(2,4,6-trimethylphenoxy)pyridine-3-carboxamide]	+++ (“+++” means <3 uM)
CCOc1ccc(-c2ccc(C(=O)NS(=O)(=O)c3ccc[nH]c3=O)c(Oc3c(C)cc(C)cc3C)n2)cc1F [Compound 901, 6-(4-ethoxy-3-fluoro-phenyl)-N-[(2-oxo-1H-pyridin-3-yl)sulfonyl]-2-(2,4,6-trimethylphenoxy)pyridine-3-carboxamide]	++ (“++” means between 3 uM and 10 uM)
CC(C)COc1cc(-c2ccc(C(=O)NS(=O)(=O)c3ccc[nH]c3=O)c(N3[C@H](C)CC[C@@H]3C)n2)ccc1Cl [Compound 902, 6-(4-chloro-3-isobutoxy-phenyl)-2-[(2S,5R)-2,5-dimethylpyrrolidin-1-yl]-N-[(2-oxo-1H-pyridin-3-yl)sulfonyl]pyridine-3-carboxamide]	+++ (“+++” means <3 uM)
CC(C)Oc1ccc(-c2ccc(C(=O)NS(=O)(=O)c3cccc(N)n3)c(N3C4CCC3CC4)n2)cn1 [Compound 903, N-[(6-amino-2-pyridyl)sulfonyl]-2-(7-azabicyclo[2.2.1]heptan-7-yl)-6-(6-isopropoxy-3-pyridyl)pyridine-3-carboxamide]	++ (“++” means between 3 uM and 10 uM)
CC(C)COc1cc(F)cc(-c2ccc(C(=O)NS(=O)(=O)c3ccn[nH]3)c(N3CC(C)CC3(C)C)n2)c1 (centres unmarked) [Compound 904, 6-(3-fluoro-5-isobutoxy-phenyl)-N-(1H-pyrazol-5-ylsulfonyl)-2-(2,2,4-trimethylpyrrolidin-1-yl)pyridine-3-carboxamide]	+++ (“+++” means <3 uM)
Cc1cc(OC(C)C)ncc1-c1ccc(C(=O)NS(=O)(=O)c2cccc(N)n2)c(N2CC(C)CC2(C)C)n1 (centres unmarked) [Compound 905, N-[(6-amino-2-pyridyl)sulfonyl]-6-(6-isopropoxy-4-methyl-3-pyridyl)-2-(2,2,4-trimethylpyrrolidin-1-yl)pyridine-3-carboxamide]	+++ (“+++” means <3 uM)
CC(C)COc1cc(F)cc(-c2ccc(C(=O)NS(=O)(=O)c3cccc(N)n3)c(N3CCC4CC43)n2)c1 (centres unmarked) [Compound 906, N-[(6-amino-2-pyridyl)sulfonyl]-2-(4-azabicyclo[3.1.0]hexan-4-yl)-6-(3-fluoro-5-isobutoxy-phenyl)pyridine-3-carboxamide]	+++ (“+++” means <3 uM)
CC(C)COc1cc(F)cc(-c2ccc(C(=O)NS(=O)(=O)c3ccn[nH]3)c(N3CCCC(C(F)(F)F)C3)n2)c1 (centres unmarked) [Compound 907, 6-(3-fluoro-5-isobutoxy-phenyl)-N-(1H-pyrazol-5-ylsulfonyl)-2-[3-(trifluoromethyl)-1-piperidyl]pyridine-3-carboxamide]	+++ (“+++” means <3 uM)
Cc1cc(C)c(Oc2nc(-c3cccc(O)c3)ccc2C(=O)NS(=O)(=O)c2cccc(N)n2)c(C)c1 [Compound 908, N-[(6-amino-2-pyridyl)sulfonyl]-6-(3-hydroxyphenyl)-2-(2,4,6-trimethylphenoxy)pyridine-3-carboxamide]	+ (“+” means greater than 10 uM)
Cc1cc(C)c(Oc2nc(-c3cccnc3OC(C)C)ccc2C(=O)NS(=O)(=O)c2cccc(N)n2)c(C)c1 [Compound 909, N-[(6-amino-2-pyridyl)sulfonyl]-6-(2-isopropoxy-3-pyridyl)-2-(2,4,6-trimethylphenoxy)pyridine-3-carboxamide]	+++ (“+++” means <3 uM)
CCOc1ccc(-c2ccc(C(=O)NS(=O)(=O)c3cccc(N)n3)c(N3CCC(C)CC3)n2)cc1 [Compound 910, N-[(6-amino-2-pyridyl)sulfonyl]-6-(4-ethoxyphenyl)-2-(4-methyl-1-piperidyl)pyridine-3-carboxamide]	+++ (“+++” means <3 uM)
Cc1cc(C)c(Oc2nc(C(C)(C)C)ccc2C(=O)NS(=O)(=O)c2ccnn2C)c(C)c1 [Compound 911, 6-tert-butyl-N-(2-methylpyrazol-3-yl)sulfonyl-2-(2,4,6-trimethylphenoxy)pyridine-3-carboxamide]	+++ (“+++” means <3 uM)
CC(C)COc1cc(F)cc(-c2ccc(C(=O)NS(=O)(=O)c3ccn[nH]3)c(N3CCC[C@@H](c4ccccc4)C3)n2)c1 [Compound 912, 6-(3-fluoro-5-isobutoxy-phenyl)-2-[(3S)-3-phenyl-1-piperidyl]-N-(1H-pyrazol-5-ylsulfonyl)pyridine-3-carboxamide]	+++ (“+++” means <3 uM)
CC(C)Oc1ccc(-c2ccc(C(=O)NS(=O)(=O)c3cccc(N)n3)c(N3CCC(F)CC3)n2)cn1 [Compound 913, N-[(6-amino-2-pyridyl)sulfonyl]-2-(4-fluoro-1-piperidyl)-6-(6-isopropoxy-3-pyridyl)pyridine-3-carboxamide]	++ (“++” means between 3 uM and 10 uM)
Cc1cc(C)c(Oc2nc(-c3cc(F)cc(OC(C)C)c3)ccc2C(=O)NS(=O)(=O)c2cc[nH]n2)c(C)c1 [Compound 914, 6-(3-fluoro-5-isopropoxy-phenyl)-N-(1H-pyrazol-3-ylsulfonyl)-2-(2,4,6-trimethylphenoxy)pyridine-3-carboxamide]	+++ (“+++” means <3 uM)
CC(C)Oc1ccc(-c2ccc(C(=O)NS(=O)(=O)c3cccc(N)n3)c(N3CC(C)(C)CC3(C)C)n2)cn1 [Compound 915, N-[(6-amino-2-pyridyl)sulfonyl]-6-(6-isopropoxy-3-pyridyl)-2-(2,2,4,4-tetramethylpyrrolidin-1-yl)pyridine-3-carboxamide]	+++ (“+++” means <3 uM)
Cc1cc(C)c(Oc2nc(C(C)(C)C)ccc2C(=O)NS(=O)(=O)c2cccc(NCCO)n2)c(C)c1 [Compound 916, 6-tert-butyl-N-[[6-(2-hydroxyethylamino)-2-pyridyl]sulfonyl]-2-(2,4,6-trimethylphenoxy)pyridine-3-carboxamide]	+++ (“+++” means <3 uM)
CCOc1cc(-c2ccc(C(=O)NS(=O)(=O)c3ccc[nH]c3=O)c(Oc3c(C)cc(C)cc3C)n2)ccc1F [Compound 917, 6-(3-ethoxy-4-fluoro-phenyl)-N-[(2-oxo-1H-pyridin-3-yl)sulfonyl]-2-(2,4,6-trimethylphenoxy)pyridine-3-carboxamide]	++ (“++” means between 3 uM and 10 uM)
Cc1cc(C)c(CN2c3ccccc3C[C@@H]2C(=O)NS(=O)(=O)c2ccccc2)c(C)c1 [Compound 918, (2R)—N-(benzenesulfonyl)-1-[(2,4,6-trimethylphenyl)methyl]indoline-2-carboxamide]	+++ (“+++” means <3 uM)
COc1cc(-c2ccc(C(=O)NS(=O)(=O)c3cccc(N)n3)c(Oc3c(C)cc(C)cc3C)n2)ccc1F [Compound 919, N-[(6-amino-2-pyridyl)sulfonyl]-6-(4-fluoro-3-methoxy-phenyl)-2-(2,4,6-trimethylphenoxy)pyridine-3-carboxamide]	+++ (“+++” means <3 uM)
COc1cccc(F)c1-c1ccc(C(=O)NS(=O)(=O)c2cccc(N)n2)c(Oc2c(C)cc(C)cc2C)n1 [Compound 920, N-[(6-amino-2-pyridyl)sulfonyl]-6-(2-fluoro-6-methoxy-phenyl)-2-(2,4,6-trimethylphenoxy)pyridine-3-carboxamide]	+++ (“+++” means <3 uM)
CC(C)Oc1ccc(-c2ccc(C(=O)NS(=O)(=O)c3cccc(N)n3)c(N3C[C@H]4CC[C@@H]3C4)n2)cn1 [Compound 921, N-[(6-amino-2-pyridyl)sulfonyl]-2-[(1S,4R)-3-azabicyclo[2.2.1]heptan-3-yl]-6-(6-isopropoxy-3-pyridyl)pyridine-3-carboxamide]	++ (“++” means between 3 uM and 10 uM)
C[C@@H]1CC[C@H](C)N1c1nc(-c2cc(F)cc(OCC3CCC3)c2)ccc1C(=O)NS(=O)(=O)c1ccc[nH]c1=O [Compound 922, 6-[3-(cyclobutylmethoxy)-5-fluoro-phenyl]-2-[(2S,5R)-2,5-dimethylpyrrolidin-1-yl]-N-[(2-oxo-1H-pyridin-3-yl)sulfonyl]pyridine-3-carboxamide]	+++ (“+++” means <3 uM)

— patent US10758534B2 (Vertex Pharmaceuticals Incorporated, priority 2014, dated 2020)
